Patent US11697648B2, “Fused pyrimidine pyridinone compounds as JAK inhibitors” (THERAVANCE BIOPHARMA R&D IP, LLC, priority 2019, dated 2023)

Columns and labels:
JAK1 = JAK1 (Homo sapiens (Human), UniProt P23458); experiment: Biochemical JAK1 kinase assay (LanthaScreen)
Procedure: (§1) Assay 1: Biochemical JAK and Tyk2 Kinase Assays
(§2) A panel of four LanthaScreen JAK biochemical assays (JAK1, 2, 3 and Tyk2) were carried in a common kinase reaction buffer (50 mM HEPES, pH 7.5, 0.01% Brij-35, 10 mM MgCl2, and 1 mM EGTA). Recombinant GST-tagged JAK enzymes and a GFP-tagged STAT1 peptide substrate were obtained from Life Technologies.
(§3) Serially or discretely diluted compounds were pre-incubated with each of the four JAK enzymes and the substrate in white 384-well microplates (Corning) at ambient temperature for 1 h. ATP was subsequently added to initiate the kinase reactions in 10 μL total volume, with 1% DMSO. […] Kinase reactions were allowed to proceed for 1 hour at ambient temperature before a 10 μL preparation of EDTA (10 mM final concentration) and Tb-anti-pSTAT1 (pTyr701) antibody (Life Technologies, 2 nM final concentration) in TR-FRET dilution buffer (Life Technologies) was added. The plates were allowed to incubate at ambient temperature for 1 h before being read on the EnVision reader (Perkin Elmer). Emission ratio signals (520 nm/495 nm) were recorded and utilized to calculate the percent inhibition values based on DMSO and background controls.
(§4) For dose-response analysis, percent inhibition data were plotted vs. compound concentrations, and IC50 values were determined from a 4-parameter robust fit model with the Prism software (GraphPad Software). Results were expressed as pIC50 (negative logarithm of IC50) and subsequently converted to pKi (negative logarithm of dissociation constant, Ki) using the Cheng-Prusoff equation.

[1] = test system: IL-2 stimulated STAT5 phosphorylation in Tall-1 human T cell line (JAK3); experiment: Cellular JAK3 potency assay: inhibition of IL-2 stimulated pSTAT5 in Tall-1 T cells; type: cell-based
Procedure: Assay 2: Cellular JAK3 Potency Assay: Inhibition of IL-2 Stimulated pSTAT5 in Tall-1 T Cells
The potency of test compounds for inhibition of interleukin-2 (IL-2) stimulated STAT5 phosphorylation was measured in the Tall-1 human T cell line (DSMZ) using AlphaLisa. Because IL-2 signals through JAK3, this assay provides a measure of JAK3 cellular potency.
Phosphorylated STAT5 was measured via the AlphaLISA SureFire Ultra pSTAT5 (Tyr694/699) kit (PerkinElmer).
Human T cells from the Tall-1 cell line were cultured in a 37° C., 5% CO2 humidified incubator in RPMI (Life Technologies) supplemented with 15% Heat Inactivated Fetal Bovine Serum (FBS, Life Technologies), 2 mM Glutamax (Life Technologies), 25 mM HEPES (Life Technologies) and 1× Pen/Strep (Life Technologies). Compounds were serially diluted in DMSO and dispensed acoustically to empty wells. Assay media (phenol red-free DMEM (Life Technologies) supplemented with 10% FBS (ATCC)) was dispensed (4 μL/well) and plates shaken at 900 rpm for 10 inns. Cells were seeded at 45,000 cells/well in assay media (4 μL/well), and incubated at 37° C., 5% CO2 for 1 hour, followed by the addition of IL-2 (R&D Systems; final concentration 300 ng/ml) in pre-warmed assay media (4 μL) for 30 minutes. After cytokine stimulation, cells were lysed with 6 ul of 3× AlphaLisa Lysis Buffer (PerkinElmer) containing 1× PhosStop and Complete tablets (Roche). The lysate was shaken at 900 rpm for 10 minutes at room temperature (RT). Phosphorylated STAT5 was measured via the pSTAT5 AlphaLisa kit (PerkinElmer). Freshly prepared acceptor bead mixture was dispensed onto lysate (5 μL) under green filtered <100 lux light. Plates were shaken at 900 rpm for 2 mins, briefly spun down, and incubated for 2 hrs at RT in the dark. Donor beads were dispensed (5 μL) under green filtered <100 lux light. Plates were shaken at 900 rpm for 2 minutes, briefly spun down, and incubated overnight at RT in the dark. Luminescence was measured with excitation at 689 nm and emission at 570 nm using an EnVision plate reader (PerkinElmer) under green filtered <100 lux light.
To determine the inhibitory potency of test compounds in response to IL-2, the average emission intensity of beads bound to pSTAT5 was measured in a human T cell line. IC50 values were determined from analysis of the inhibition curves of signal intensity versus compound concentration. Data are expressed as pIC50 (negative decadic logarithm IC50) values (mean standard deviation).

Tyk2 = Tyk2 (Homo sapiens (Human), UniProt P29597); experiment: Biochemical Tyk2 kinase assay (LanthaScreen)
Sequence of Tyk2 (P29597 whole entry): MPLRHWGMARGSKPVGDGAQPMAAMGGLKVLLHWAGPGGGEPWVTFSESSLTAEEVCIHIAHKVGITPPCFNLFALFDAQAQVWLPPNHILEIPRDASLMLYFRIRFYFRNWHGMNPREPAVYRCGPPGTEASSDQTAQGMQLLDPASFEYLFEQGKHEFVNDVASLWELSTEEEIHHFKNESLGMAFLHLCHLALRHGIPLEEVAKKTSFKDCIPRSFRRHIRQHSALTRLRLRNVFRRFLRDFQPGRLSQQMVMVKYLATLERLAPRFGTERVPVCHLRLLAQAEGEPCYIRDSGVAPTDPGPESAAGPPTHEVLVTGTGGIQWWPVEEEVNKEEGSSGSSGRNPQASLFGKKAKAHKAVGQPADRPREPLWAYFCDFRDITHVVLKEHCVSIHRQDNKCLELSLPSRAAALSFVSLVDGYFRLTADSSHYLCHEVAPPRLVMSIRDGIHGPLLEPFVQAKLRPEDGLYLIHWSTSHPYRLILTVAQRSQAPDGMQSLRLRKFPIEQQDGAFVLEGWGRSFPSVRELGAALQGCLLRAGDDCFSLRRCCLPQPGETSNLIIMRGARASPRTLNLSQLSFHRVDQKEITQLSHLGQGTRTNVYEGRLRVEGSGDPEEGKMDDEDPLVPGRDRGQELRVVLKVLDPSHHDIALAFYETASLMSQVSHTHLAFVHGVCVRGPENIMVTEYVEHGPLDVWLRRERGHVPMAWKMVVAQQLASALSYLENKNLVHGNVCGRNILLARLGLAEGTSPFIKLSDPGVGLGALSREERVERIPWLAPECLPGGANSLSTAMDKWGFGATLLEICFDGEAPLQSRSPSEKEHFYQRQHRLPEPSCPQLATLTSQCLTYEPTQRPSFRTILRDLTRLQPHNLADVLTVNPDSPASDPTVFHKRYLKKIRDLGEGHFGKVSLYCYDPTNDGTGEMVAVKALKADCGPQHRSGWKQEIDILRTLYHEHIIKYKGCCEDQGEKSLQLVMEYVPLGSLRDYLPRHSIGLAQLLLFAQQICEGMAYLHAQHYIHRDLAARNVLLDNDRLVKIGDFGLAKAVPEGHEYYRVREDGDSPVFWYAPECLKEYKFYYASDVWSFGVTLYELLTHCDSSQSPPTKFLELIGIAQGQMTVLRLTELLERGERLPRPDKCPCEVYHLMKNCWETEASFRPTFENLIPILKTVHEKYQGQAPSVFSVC
Procedure: as §1, §2, §3, §4

JAK2 = JAK2 (Homo sapiens (Human), UniProt O60674); experiment: Biochemical JAK2 kinase assay (LanthaScreen)
Sequence of JAK2 (O60674 whole entry): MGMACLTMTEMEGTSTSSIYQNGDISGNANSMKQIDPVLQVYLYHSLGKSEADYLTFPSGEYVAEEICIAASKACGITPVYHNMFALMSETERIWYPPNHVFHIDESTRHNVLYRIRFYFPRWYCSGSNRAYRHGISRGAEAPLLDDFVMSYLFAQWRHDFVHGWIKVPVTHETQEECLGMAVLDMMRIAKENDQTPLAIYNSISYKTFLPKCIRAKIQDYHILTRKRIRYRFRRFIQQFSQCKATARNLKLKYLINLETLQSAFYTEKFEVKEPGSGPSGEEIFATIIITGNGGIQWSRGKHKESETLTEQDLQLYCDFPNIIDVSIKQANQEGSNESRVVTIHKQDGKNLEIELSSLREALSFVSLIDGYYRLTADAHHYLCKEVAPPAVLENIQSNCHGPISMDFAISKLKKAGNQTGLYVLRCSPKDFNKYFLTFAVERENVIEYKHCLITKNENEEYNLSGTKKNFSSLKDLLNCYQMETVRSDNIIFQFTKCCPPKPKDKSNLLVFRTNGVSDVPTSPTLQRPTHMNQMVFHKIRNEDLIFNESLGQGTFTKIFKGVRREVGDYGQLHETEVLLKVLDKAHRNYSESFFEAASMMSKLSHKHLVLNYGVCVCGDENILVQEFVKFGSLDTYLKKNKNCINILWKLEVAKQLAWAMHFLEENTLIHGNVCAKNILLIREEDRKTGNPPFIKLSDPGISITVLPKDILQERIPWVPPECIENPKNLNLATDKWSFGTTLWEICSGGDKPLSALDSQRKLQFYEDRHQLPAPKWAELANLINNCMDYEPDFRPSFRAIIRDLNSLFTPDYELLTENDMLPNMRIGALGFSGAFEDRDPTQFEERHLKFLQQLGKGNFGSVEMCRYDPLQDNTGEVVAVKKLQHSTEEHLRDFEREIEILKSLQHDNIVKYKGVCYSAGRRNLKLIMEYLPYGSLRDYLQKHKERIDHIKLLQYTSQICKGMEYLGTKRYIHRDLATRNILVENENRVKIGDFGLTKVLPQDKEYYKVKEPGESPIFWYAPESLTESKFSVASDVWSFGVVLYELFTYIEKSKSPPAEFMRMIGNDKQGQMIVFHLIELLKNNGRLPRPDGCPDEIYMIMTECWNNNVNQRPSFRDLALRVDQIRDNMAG
Procedure: as §1, §2, §3, §4

JAK3 = JAK3 (Homo sapiens (Human), UniProt P52333); experiment: Biochemical JAK3 kinase assay (LanthaScreen)
Sequence of JAK3 (P52333 whole entry): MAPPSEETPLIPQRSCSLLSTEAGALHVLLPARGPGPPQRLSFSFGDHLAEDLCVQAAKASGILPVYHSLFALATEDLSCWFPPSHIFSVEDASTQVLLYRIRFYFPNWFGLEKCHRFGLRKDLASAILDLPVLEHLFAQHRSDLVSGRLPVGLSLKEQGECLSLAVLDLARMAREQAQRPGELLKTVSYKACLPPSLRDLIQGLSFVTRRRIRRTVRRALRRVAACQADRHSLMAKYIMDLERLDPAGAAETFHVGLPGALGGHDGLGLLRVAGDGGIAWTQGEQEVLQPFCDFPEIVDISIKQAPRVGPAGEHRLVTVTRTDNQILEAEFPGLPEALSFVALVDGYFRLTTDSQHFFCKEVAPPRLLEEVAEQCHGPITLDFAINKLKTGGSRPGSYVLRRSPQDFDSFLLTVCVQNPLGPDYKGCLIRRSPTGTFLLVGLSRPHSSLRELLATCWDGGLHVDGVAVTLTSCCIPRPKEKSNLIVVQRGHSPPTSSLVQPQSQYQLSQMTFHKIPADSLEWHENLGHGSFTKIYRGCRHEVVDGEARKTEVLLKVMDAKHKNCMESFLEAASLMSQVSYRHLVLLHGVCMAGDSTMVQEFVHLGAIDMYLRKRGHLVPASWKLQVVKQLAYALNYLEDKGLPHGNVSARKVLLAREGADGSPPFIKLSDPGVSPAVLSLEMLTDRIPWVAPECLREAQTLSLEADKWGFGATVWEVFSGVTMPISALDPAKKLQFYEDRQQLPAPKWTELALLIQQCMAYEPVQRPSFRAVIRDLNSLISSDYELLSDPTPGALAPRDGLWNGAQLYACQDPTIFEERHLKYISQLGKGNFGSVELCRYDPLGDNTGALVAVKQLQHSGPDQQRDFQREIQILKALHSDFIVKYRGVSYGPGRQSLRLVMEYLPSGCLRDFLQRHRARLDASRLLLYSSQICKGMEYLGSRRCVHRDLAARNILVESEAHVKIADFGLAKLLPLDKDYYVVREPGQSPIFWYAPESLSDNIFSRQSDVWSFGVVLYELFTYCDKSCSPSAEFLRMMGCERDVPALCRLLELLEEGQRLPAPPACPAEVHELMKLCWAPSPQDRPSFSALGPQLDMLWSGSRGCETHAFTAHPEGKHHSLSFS
Procedure: as §1, §2, §3, §4

[2] = IL-2 stimulated pSTAT5, Tall-1 T cells
[3] = selectivity JAK3 over JAK1, difference of pKi

Sequence of JAK1 (P23458 whole entry): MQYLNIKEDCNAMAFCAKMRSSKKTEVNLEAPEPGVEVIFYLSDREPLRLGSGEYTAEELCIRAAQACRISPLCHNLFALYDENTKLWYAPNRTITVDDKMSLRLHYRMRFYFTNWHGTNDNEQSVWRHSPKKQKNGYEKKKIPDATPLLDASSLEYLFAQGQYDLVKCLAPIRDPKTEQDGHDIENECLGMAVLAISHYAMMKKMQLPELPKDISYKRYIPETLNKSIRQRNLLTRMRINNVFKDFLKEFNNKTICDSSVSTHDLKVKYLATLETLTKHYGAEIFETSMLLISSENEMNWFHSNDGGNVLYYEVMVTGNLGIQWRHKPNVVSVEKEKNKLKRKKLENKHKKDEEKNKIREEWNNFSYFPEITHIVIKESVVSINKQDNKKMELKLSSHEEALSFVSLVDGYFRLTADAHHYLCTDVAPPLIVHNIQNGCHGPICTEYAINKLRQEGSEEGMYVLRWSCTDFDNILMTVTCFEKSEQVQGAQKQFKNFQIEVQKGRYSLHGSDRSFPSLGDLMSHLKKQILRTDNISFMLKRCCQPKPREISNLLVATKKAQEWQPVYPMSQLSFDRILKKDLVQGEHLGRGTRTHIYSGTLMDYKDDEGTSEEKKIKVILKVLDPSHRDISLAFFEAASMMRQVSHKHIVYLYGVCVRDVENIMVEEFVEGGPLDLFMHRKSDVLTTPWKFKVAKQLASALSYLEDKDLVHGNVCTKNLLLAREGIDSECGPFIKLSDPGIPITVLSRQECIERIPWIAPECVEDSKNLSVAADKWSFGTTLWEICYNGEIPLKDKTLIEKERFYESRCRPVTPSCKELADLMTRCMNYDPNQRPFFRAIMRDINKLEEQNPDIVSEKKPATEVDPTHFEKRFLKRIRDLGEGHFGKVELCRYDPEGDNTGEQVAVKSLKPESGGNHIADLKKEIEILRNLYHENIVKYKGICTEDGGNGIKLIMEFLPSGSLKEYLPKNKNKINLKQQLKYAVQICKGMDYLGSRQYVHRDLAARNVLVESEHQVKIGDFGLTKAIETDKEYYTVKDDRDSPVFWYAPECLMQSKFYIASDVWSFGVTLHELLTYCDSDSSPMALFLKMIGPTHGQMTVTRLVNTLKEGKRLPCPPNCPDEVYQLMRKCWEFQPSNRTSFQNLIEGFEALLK

Row | Compound | JAK 1 (pKi) (JAK1) | Tall-1 (pIC50) [1, 2] | Tyk 2 (pKi) (Tyk2) | JAK 2 (pKi) (JAK2) | JAK 3 (pKi) (JAK3) | JAK3 (pKi)-JAK1 (pKi) (JAK3; [3]) | Tall-1 (pIC50) ([1]; IL-2 stimulated pSTAT5 in Tall-1 T cells) | JAK3 (pKi)-JAK1 (pKi) (JAK3; selectivity, difference of pKi values)
1 | C=CC(=O)N1CC(CCn2c(=O)ccc3cnc(Nc4ccc(N5CCN(CC(F)(F)F)CC5)cc4)nc32)C1 [Example 119] | E (E represents a pKi value of 7 or below (Ki of 100 nM or above)) | B (B represents a pC50 value between 6.7 (included) and 7.5 (IC50 between 200 nM and 32 nM)) | E (E represents a pKi value of 7 or below (Ki of 100 nM or above)) | E (E represents a pKi value of 7 or below (Ki of 100 nM or above)) | A (A represents a pKi value≥10 (Ki≤0.1 nM)) | A (A represents a value of 3 or above) | – | –
2 | C=CC(=O)N1CCN(CCn2c(=O)ccc3cnc(Nc4cnn(C)c4)nc32)C2(CC2)C1 [Example 149] | E (E represents a pKi value of 7 or below (Ki of 100 nM or above)) | C (C represents a pIC50 value between 6 and 6.7 (IC50 between 1 μM and 200 nM)) | E (E represents a pKi value of 7 or below (Ki of 100 nM or above)) | E (E represents a pKi value of 7 or below (Ki of 100 nM or above)) | B (B represents pKi value between 9 and 10 (Ki between 1 nM and 0.1 nM)) | A (A represents a value of 3 or above) | – | –
3 | C=CC(=O)N1CCN(CCn2c(=O)ccc3cnc(Nc4ccc(N5CCN(C(=S)N(C)C)CC5)cc4)nc32)CC1 [Example 214] | E (E represents a pKi value of 7 or below (Ki of 100 nM or above)) | B (B represents a pC50 value between 6.7 (included) and 7.5 (IC50 between 200 nM and 32 nM)) | E (E represents a pKi value of 7 or below (Ki of 100 nM or above)) | E (E represents a pKi value of 7 or below (Ki of 100 nM or above)) | B (B represents pKi value between 9 and 10 (Ki between 1 nM and 0.1 nM)) | A (A represents a value of 3 or above) | – | –
4 | C=CC(=O)N1CC(CCn2c(=O)ccc3cnc(Nc4ccc(N(C)Cc5ccccc5)cc4)nc32)C1 [Example 225] | E (E represents a pKi value of 7 or below (Ki of 100 nM or above)) | C (C represents a pIC50 value between 6 and 6.7 (IC50 between 1 μM and 200 nM)) | E (E represents a pKi value of 7 or below (Ki of 100 nM or above)) | E (E represents a pKi value of 7 or below (Ki of 100 nM or above)) | B (B represents pKi value between 9 and 10 (Ki between 1 nM and 0.1 nM)) | A (A represents a value of 3 or above) | – | –
5 | C=CC(=O)N1CCN(CCn2c(=O)ccc3cnc(Nc4ccc(N5CCN(C)CC5)c(Cl)c4)nc32)CC1 [Example 154] | E (E represents a pKi value of 7 or below (Ki of 100 nM or above)) | B (B represents a pC50 value between 6.7 (included) and 7.5 (IC50 between 200 nM and 32 nM)) | E (E represents a pKi value of 7 or below (Ki of 100 nM or above)) | E (E represents a pKi value of 7 or below (Ki of 100 nM or above)) | B (B represents pKi value between 9 and 10 (Ki between 1 nM and 0.1 nM)) | A (A represents a value of 3 or above) | – | –
6 | C=CC(=O)N1CC(CCn2c(=O)ccc3cnc(Nc4ccc(N5CCN(C(C)=O)CC5)c(Cl)c4)nc32)C1 [Example 182] | E (E represents a pKi value of 7 or below (Ki of 100 nM or above)) | B (B represents a pC50 value between 6.7 (included) and 7.5 (IC50 between 200 nM and 32 nM)) | E (E represents a pKi value of 7 or below (Ki of 100 nM or above)) | E (E represents a pKi value of 7 or below (Ki of 100 nM or above)) | A (A represents a pKi value≥10 (Ki≤0.1 nM)) | A (A represents a value of 3 or above) | – | –
7 | C=CC(=O)N1CCN(CCn2c(=O)ccc3cnc(Nc4cnn(CCOC(F)F)c4)nc32)[C@@H](C)C1 [Example 238] | E (E represents a pKi value of 7 or below (Ki of 100 nM or above)) | – | E (E represents a pKi value of 7 or below (Ki of 100 nM or above)) | E (E represents a pKi value of 7 or below (Ki of 100 nM or above)) | B (B represents pKi value between 9 and 10 (Ki between 1 nM and 0.1 nM)) | – | C (C represents a pIC50 value between 6 and 6.7 (IC50 between 1 μM and 200 nM)) | A (A represents a value of 3 or above)
8 | C=CC(=O)N1CCN(CCn2c(=O)ccc3cnc(Nc4cnn(CCOC(C)C)c4)nc32)[C@@H](C)C1 [Example 230] | E (E represents a pKi value of 7 or below (Ki of 100 nM or above)) | B (B represents a pC50 value between 6.7 (included) and 7.5 (IC50 between 200 nM and 32 nM)) | E (E represents a pKi value of 7 or below (Ki of 100 nM or above)) | E (E represents a pKi value of 7 or below (Ki of 100 nM or above)) | B (B represents pKi value between 9 and 10 (Ki between 1 nM and 0.1 nM)) | A (A represents a value of 3 or above) | – | –
9 | C=CC(=O)N1CC(CCn2c(=O)ccc3cnc(Nc4ccc(N5CCN(CCN6CCCCC6)CC5)cc4)nc32)C1 [Example 113] | E (E represents a pKi value of 7 or below (Ki of 100 nM or above)) | A (A represents a pIC50 value≥7.5 (IC50≤32 nM)) | E (E represents a pKi value of 7 or below (Ki of 100 nM or above)) | E (E represents a pKi value of 7 or below (Ki of 100 nM or above)) | B (B represents pKi value between 9 and 10 (Ki between 1 nM and 0.1 nM)) | A (A represents a value of 3 or above) | – | –
10 | C=CC(=O)N1CC(CCn2c(=O)ccc3cnc(Nc4ccc(N5CCN(C)CC5)cc4)nc32)C1 [Example 45] | E (E represents a pKi value of 7 or below (Ki of 100 nM or above)) | B (B represents a pC50 value between 6.7 (included) and 7.5 (IC50 between 200 nM and 32 nM)) | E (E represents a pKi value of 7 or below (Ki of 100 nM or above)) | E (E represents a pKi value of 7 or below (Ki of 100 nM or above)) | B (B represents pKi value between 9 and 10 (Ki between 1 nM and 0.1 nM)) | A (A represents a value of 3 or above) | – | –
11 | C=CC(=O)N1CCN(CCn2c(=O)ccc3cnc(Nc4ccc(C5CCN(C)CC5)cc4)nc32)CC1 [Example 87] | E (E represents a pKi value of 7 or below (Ki of 100 nM or above)) | A (A represents a pIC50 value≥7.5 (IC50≤32 nM)) | E (E represents a pKi value of 7 or below (Ki of 100 nM or above)) | E (E represents a pKi value of 7 or below (Ki of 100 nM or above)) | B (B represents pKi value between 9 and 10 (Ki between 1 nM and 0.1 nM)) | A (A represents a value of 3 or above) | – | –
